# Columns and labels:
# VEGFR-2 (P-VEGFR-2) = test: Western blot of VEGFR-2 phosphorylation in HUVEC lysates; assay type: cell-based, human; details: with VEGF-A stimulation
# Method: (§1) The effect of VEGF-mimicking sequences on VEGF-A-mediated activation of Akt, a key VEGF downstream signal,^68 and VEGFR-2 was then examined by Western blot (FIG. 8). […] However, the activation of the VEGF pathway by V2 and QK is dependent on the presence of VEGF-A (FIG. 8E). […] HUVECs (1×10^6) were starved for 24 h and treated with a V1, V2, V3 and QK in the presence or absence of VEGF-A165 at 37° C. for 24 h. Cells were then lysed with a lysis buffer containing Protease and Phosphatase Inhibitor (Thermo Scientific) to obtain total cellular proteins, and the amount of protein was quantified using the BCA Protein Assay Kit (Thermo Scientific, Waltham, MA). Proteins were then denatured by boiling at 100° C. for 10 min in the sample buffer and separated by electrophoresis on 10% SDS-[…] minigels. Target proteins were transferred to polyvinylidene difluoride membranes and blocked with 5% BSA in TBST solution for 1 h and then washed three times with TBST (5 min each time). […]
# HUVECs [1] = test: Capillary tube formation assay; assay type: cell-based, human; details: 2 μM, in the presence of VEGF165 (50 ng/mL), 24 h
# Method: The ultimate effect of angiogenesis is the formation of vasculature that can support healing, survival, and proliferation. Next, the inventors used HUVECs to investigate the effect of the AA peptide sequences on the formation of capillary-like tube structures in vitro in the presence of VEGF165. […] Nutrient starved HUVECs, for 24 h in 0.5% FBS (sEBM) endothelial basal medium (EBM), were harvested and resuspended in 10% FBS (mEGM) endothelial growth medium. Cells were then seeded in 48 well plate coated with basement membrane extract (BME). To prepare the plates, Costar48 well culture plates were coated with basement membrane (Corning Matrigel Basement Membrane Matrix LDEV-free, 354234) and incubated for 30 min at 37° C. 5×10^4 cells were seeded in each well and treated with VEGF mimic sequences and/or VEGF165, or left untreated. Formation or lack thereof of tube-like structures was monitored over a 24 h period with a Nikon Inverted Microscope ECLIPSE Ti-U.
# HUVECs [2] = test: Wound healing (scratch-wound motility) assay; assay type: cell-based, human; details: 10 μM, in the presence of VEGF165 (50 ng/mL), 24 h
# Method: Wound healing is facilitated by the VEGF pathway's effect on cell migration and proliferation.14 The effect of the helical mimic sequences on cell migration and invasion was tested on HUVECs in the presence of VEGF165 using a scratch-wound motility assay. […] HUVEC cells (10^5) were seeded on a 12 well tissue culture plate and allowed to grow for 12 h. The attached cells were then scratched with a sterile […] pipette tip and treated with mimic sequences (10 μM) and/or VEGF165 (50 ng/mL) in serum free medium. […] The wound widths were measured by ImageJ (version 1.50).
# VEGFR-1 = biological target: T1, VEGFR-1 (Homo sapiens, UniProt P17948); test: Immunofluorescence binding assay with anti-VEGFR-1 antibody; assay type: cell-based; details: HUVECs treated with 10 μM, compared to control
# T1 construct: immunofluorescence studies were carried out using HUVECs and antibodies specific to each receptor; endogenous in cells; host or cells: HUVEC
# Method: (§2) On the basis of the assays conducted, the inventors speculated that distinct cell signaling and angiogenic response are due to the sequences V2 and V3 binding to different VEGFR subtypes. To further characterize the binding profiles of V2 and V3 to VEGFR-1 and VEGFR-2, immunofluorescence studies were carried out using HUVECs and antibodies specific to each receptor. Cells treated with V2 and V3 (10 μM) were fixed and treated with anti-VEGFR-1 and anti-VEGFR-2 antibodies, followed by FITC-labeled secondary antibody and a DAPI counterstain. […] HUVEC cells grown in m-Dish 35 mm, high Glass Bottom (#81158 Ibidi) were treated with V2 and V3 overnight at 37° C. Cells were then washed with TBST twice and fixed with 4% formaldehyde solution (Fisher Chemical) for 20 min at room temperature. This was followed by TBST wash twice and blocking with TBST—5% BSA blocking solution for 1 h at room temperature. After washing the cells with TBST three times, the cells were incubated with anti-VEGFR-1 antibody (Proteintech) and anti-VEGFR-2 antibody (Invitrogen) overnight at 4° C. […] A Nikon fluorescence microscope was used for imaging cells and image analysis was done with Image J software (ImageJ 5.53e, National Institute of Health, USA).
# [3] = biological target: T2, VEGFR-1 extracellular domain (Met 1-Asn 756) (Homo sapiens, UniProt P17948); test: Surface plasmon resonance binding to VEGFR-1 extracellular domain; details: one-to-one binding model
# T2 construct: VEGF-1 protein extracellular domain (Met 1-Asn 756); purchased Creative BioMart USA FLT1-3809H
# Method: (§3) Surface plasmon resonance (SPR) assays were carried out to determine the binding affinities of the VEGF mimic sequences toward the extracellular domains of VEGFR-1 and VEGFR-2 (FIGS. 13 and 14).
# (§4) Binding kinetics of VEGF mimics to VEGFR-1 were measured by surface plasmon resonance (SPR) using a Biacore T200 (General Electric Co.). […] protein extracellular domain (Met 1-Asn 756) (FLT1-3809H, Creative BioMart USA) was covalently coupled to CMS chip following manufacturer's instructions. Samples were prepared in RBS-EP+ buffer (pH 7.4) at different concentration and flowed over the sensor chip to interact with the immobilized protein, followed by the running buffer. The dissociation data was collected, and a different concentration was assayed after redundant samples were removed from the protein by treating with KCl (1 M). The final binding kinetics was obtained by fitting using the T200 software with a one-to-one binding model. Binding affinities of mimic sequences to VEGFR-2 were measured using VEGFR-2 extracellular domain (Met 1-Glu 764) (KDR-6966H, Creative BioMart USA) in a similar fashion.
# VEGFR-2 = biological target: T3, VEGFR-2 (Homo sapiens, UniProt P35968); test: Immunofluorescence binding assay with anti-VEGFR-2 antibody; assay type: cell-based; details: HUVECs treated with 10 μM, compared to control
# T3 construct: endogenous in cells; host or cells: HUVEC
# Method: as §2
# [4] = biological target: T4, VEGFR-2 extracellular domain (Met 1-Glu 764) (Homo sapiens, UniProt P35968); test: Surface plasmon resonance binding to VEGFR-2 extracellular domain; details: for Binding affinity (Kd) to VEGFR-2 as determined by SPR: extracellular domain, one-to-one binding model
# T4 construct: VEGFR-2 extracellular domain (Met 1-Glu 764); purchased Creative BioMart USA KDR-6966H
# Method: as §3, §4
# Akt (P-AKT) = test: Western blot of Akt phosphorylation in HUVEC lysates; assay type: cell-based, human; details: with VEGF-A stimulation
# Method: as §1
# HUVECs [5] = test: Transwell cell migration assay; assay type: cell-based, human; details: 10 μM, in the presence of VEGF165 (50 ng/mL), 12 h
# From the text: Endothelial cell migration is an essential component of angiogenesis mediated by the VEGF pathway and can be used to assess the effect of drugs on the VEGF pathway. A Transwell migration assay was used to test the effect of the mimic sequences on the migration of human umbilical endothelial cells (HUVECs). […] Given the findings that V2 has a much stronger binding affinity for VEGFR1 than VEGFR2 (FIG. 12), the inventors speculated that this stimulatory effect may be due to its specific binding to VEGFR1, the decoy receptor. It is plausible that inhibition of VEGF-A binding to VEGFR-1 leads to an increased level of VEGF-A to bind and activate VEGFR-2, an indirect activation of the main angiogenic receptor.67 Cell migration assay was performed in triplicates on Transwell permeable support, 8.0 μm pore (Corning, USA). […] Migrated cells at the bottom of the membrane were fixed with 4% paraformaldehyde and stained with Crystal Violet at 37° C. for 20 min and 10 min respectively and counted with Nikon Inverted Microscope ECLIPSE Ti-U.
# T4 sequence (P35968 20-764): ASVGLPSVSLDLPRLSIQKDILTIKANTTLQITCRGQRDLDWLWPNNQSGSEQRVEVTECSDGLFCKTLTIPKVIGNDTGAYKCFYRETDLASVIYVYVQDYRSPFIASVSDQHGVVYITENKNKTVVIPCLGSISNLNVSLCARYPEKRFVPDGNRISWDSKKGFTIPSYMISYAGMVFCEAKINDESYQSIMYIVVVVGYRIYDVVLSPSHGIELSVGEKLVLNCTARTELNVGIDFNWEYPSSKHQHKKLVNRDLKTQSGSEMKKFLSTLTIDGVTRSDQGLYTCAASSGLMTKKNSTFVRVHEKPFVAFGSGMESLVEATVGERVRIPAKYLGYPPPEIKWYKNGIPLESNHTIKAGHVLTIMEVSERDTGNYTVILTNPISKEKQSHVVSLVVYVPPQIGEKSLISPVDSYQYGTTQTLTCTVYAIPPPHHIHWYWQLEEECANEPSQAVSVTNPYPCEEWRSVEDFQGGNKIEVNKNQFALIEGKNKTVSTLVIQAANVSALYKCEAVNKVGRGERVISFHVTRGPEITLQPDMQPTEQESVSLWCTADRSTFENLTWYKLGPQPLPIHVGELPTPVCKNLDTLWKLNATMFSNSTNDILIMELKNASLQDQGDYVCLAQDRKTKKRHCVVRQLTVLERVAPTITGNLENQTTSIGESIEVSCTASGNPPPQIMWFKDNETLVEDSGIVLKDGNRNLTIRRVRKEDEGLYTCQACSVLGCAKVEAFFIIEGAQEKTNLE
# T2 sequence (P17948 27-756): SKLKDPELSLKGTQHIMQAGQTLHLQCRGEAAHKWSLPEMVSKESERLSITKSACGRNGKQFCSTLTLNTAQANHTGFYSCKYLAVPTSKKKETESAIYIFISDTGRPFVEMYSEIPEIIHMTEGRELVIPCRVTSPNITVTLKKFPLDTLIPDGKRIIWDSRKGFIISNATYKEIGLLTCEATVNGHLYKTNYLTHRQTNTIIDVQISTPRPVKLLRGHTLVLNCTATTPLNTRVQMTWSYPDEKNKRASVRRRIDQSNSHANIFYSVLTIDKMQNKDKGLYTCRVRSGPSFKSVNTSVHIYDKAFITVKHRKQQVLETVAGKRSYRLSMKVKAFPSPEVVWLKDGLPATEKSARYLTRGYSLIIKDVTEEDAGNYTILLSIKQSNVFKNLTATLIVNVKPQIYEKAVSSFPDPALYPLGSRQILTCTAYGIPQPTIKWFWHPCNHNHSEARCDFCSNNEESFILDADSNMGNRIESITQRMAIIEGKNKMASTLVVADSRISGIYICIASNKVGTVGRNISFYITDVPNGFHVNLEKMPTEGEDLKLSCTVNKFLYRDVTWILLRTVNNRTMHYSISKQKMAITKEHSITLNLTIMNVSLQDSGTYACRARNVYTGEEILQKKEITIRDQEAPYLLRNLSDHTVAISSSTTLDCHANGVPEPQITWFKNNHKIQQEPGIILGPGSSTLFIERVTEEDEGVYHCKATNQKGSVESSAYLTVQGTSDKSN
# T3 sequence (P35968 20-1356): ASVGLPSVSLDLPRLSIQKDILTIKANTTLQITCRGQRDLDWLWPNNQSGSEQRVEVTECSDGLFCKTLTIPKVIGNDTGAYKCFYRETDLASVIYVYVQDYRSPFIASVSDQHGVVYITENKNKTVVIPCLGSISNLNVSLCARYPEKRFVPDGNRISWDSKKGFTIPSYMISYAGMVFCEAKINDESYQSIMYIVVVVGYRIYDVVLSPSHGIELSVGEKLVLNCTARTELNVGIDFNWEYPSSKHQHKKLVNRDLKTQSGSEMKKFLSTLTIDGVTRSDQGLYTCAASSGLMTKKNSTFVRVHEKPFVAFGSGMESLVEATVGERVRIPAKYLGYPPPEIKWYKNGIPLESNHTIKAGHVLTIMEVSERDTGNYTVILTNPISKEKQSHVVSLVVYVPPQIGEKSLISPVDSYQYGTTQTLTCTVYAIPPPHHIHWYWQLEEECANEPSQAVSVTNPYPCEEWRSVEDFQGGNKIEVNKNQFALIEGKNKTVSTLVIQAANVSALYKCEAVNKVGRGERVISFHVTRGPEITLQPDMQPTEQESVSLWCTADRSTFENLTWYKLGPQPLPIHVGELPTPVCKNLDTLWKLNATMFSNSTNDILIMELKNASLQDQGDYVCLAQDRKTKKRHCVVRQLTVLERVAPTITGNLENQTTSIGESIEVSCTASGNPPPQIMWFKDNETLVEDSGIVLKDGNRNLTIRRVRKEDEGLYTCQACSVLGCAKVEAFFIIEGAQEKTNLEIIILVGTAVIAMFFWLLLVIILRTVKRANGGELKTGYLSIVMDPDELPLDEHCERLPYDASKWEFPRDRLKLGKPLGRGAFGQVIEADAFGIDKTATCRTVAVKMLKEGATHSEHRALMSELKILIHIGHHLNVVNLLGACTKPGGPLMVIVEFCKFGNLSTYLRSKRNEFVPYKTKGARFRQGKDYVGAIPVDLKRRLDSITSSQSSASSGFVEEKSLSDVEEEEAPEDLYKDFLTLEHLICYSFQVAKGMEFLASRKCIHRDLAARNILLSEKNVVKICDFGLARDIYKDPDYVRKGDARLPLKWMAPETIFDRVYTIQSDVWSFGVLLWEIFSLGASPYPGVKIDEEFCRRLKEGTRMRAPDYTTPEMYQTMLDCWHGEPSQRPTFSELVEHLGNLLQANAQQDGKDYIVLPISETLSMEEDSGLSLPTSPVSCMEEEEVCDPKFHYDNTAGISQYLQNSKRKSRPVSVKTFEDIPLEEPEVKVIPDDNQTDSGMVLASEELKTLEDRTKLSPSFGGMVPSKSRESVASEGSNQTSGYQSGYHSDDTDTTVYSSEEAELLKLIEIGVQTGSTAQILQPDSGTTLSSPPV
# T1 sequence (P17948 27-1338): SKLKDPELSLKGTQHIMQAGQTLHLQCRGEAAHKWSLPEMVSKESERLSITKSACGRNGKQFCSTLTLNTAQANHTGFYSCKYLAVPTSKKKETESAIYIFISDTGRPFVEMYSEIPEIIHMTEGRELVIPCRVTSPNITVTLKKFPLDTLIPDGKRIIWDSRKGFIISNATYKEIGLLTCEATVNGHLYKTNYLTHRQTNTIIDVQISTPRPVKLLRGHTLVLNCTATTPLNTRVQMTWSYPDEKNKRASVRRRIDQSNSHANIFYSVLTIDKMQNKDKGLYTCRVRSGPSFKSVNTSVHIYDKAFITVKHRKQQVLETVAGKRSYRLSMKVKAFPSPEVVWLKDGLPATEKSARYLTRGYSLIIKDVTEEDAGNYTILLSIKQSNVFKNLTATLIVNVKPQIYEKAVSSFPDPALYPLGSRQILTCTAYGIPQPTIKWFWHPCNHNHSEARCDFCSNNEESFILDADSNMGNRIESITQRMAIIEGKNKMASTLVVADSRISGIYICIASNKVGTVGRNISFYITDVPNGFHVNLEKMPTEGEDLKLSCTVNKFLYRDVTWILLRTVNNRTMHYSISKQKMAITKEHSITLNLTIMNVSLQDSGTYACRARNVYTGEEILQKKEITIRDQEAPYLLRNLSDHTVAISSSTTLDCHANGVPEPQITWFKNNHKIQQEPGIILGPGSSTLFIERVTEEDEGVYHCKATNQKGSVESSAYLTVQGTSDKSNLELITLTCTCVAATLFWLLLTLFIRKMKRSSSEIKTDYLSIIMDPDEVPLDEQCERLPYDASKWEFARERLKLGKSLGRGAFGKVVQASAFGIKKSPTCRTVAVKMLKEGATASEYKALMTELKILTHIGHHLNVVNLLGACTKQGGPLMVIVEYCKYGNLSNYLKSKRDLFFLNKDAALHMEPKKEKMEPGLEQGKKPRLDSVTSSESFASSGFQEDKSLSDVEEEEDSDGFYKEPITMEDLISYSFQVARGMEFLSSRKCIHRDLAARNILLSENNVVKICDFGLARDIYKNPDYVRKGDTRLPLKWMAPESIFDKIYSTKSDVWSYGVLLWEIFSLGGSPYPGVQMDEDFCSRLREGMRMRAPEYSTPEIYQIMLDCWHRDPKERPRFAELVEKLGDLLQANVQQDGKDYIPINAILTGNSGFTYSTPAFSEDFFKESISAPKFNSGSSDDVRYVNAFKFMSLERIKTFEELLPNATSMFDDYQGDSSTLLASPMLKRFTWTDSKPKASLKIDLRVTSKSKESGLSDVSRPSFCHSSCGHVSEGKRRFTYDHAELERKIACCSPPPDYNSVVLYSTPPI
Binding affinity (Kd) to VEGFR-1 as determined by SPR [3],Fluorescence with anti-VEGFR-2 antibody (VEGFR-2),Selectivity for VEGFR2 (SPR binding) ([4]; VEGFR2 over VEGFR1),Binding affinity (Kd) to VEGFR-2 as determined by SPR [4],SMILES,Inhibition of phosphorylation of VEGFR-2 at low concentration (VEGFR-2 (P-VEGFR-2); 100 nM),"Phosphorylation of VEGFR-2 (P-VEGFR-2) (VEGFR-2 (P-VEGFR-2); 0.1, 0.5, 1, 10 μM)",Capillary tube formation (HUVECs [1]),Cell migration in wound healing assay (HUVECs [2]),Fluorescence with anti-VEGFR-1 antibody (VEGFR-1),Inhibition of phosphorylation of Akt at low concentration (Akt (P-AKT); 100 nM),"Phosphorylation of Akt (P-AKT) (Akt (P-AKT); 0.1, 0.5, 1, 10 μM)",Number of HUVECs migrating (Transwell) (HUVECs [5])
good binding affinities,significant reduction of fluorescence,remarkable selectivity,submicromolar binding affinity,CC(=O)N[C@@H](CCC(=O)O)CN(CC(=O)N[C@@H](CC(C)C)CN(CC(=O)N[C@@H](Cc1c[nH]c2ccccc12)CN(CC(=O)N[C@@H](CCC(=O)O)CN(CC(=O)N[C@@H](Cc1ccc(O)cc1)CN(CC(=O)N[C@@H](CCCCN)CN(CC(=O)N[C@@H](Cc1ccc(O)cc1)CN(CC(=O)N[C@@H](C)CN(CC(N)=O)S(C)(=O)=O)S(C)(=O)=O)S(C)(=O)=O)S(=O)(=O)CCN)S(=O)(=O)CC(C)C)S(=O)(=O)CC(C)C)S(=O)(=O)CCN)S(=O)(=O)CCN [V3],potent inhibition,dose-dependent inhibition of phosphorylation,substantial inhibition of capillary tube formation,virtually completely blocked wound motility,almost no effect on intensity of fluorescence,potent inhibition,dose-dependent inhibition of phosphorylation,significantly lowered
submicromolar binding affinity,–,–,good binding affinities,CC(=O)N[C@@H](CCC(=O)O)CN(CC(=O)N[C@@H](CC(C)C)CN(CC(=O)N[C@@H](Cc1ccccc1)CN(CC(=O)N[C@@H](CCC(=O)O)CN(CC(=O)N[C@@H](Cc1ccc(O)cc1)CN(CC(=O)N[C@@H](CCCCN)CN(CC(=O)N[C@@H](Cc1ccc(O)cc1)CN(CC(=O)N[C@@H](C)CN(CC(N)=O)S(C)(=O)=O)S(C)(=O)=O)S(C)(=O)=O)S(=O)(=O)CCN)S(=O)(=O)CC(C)C)S(=O)(=O)CC(C)C)S(=O)(=O)CCN)S(=O)(=O)CCN [V2],–,–,–,–,–,–,–,–

# From US11866474B2, “Modulating angiogenesis by proteomimetics of vascular endothelial growth factor” (UNIVERSITY OF SOUTH FLORIDA, priority 2021, dated 2024)
